Experimental data taken from PubChem BioAssay AID743267 (Broad Institute, 2014).

Test system: human bronchial epithelial cells, CFTR corrector, plate reader
Assay: CFTR ΔF508 corrector activity in bronchial cells, dose response, human bronchial epithelial cells, plate reader, cherry-pick, two tests (AID 743267)
Details: measured here: test 1 replicate run

Row | SMILES | AC50
1 | O=C(C1CCCC1)N1CC(=O)N2[C@H](CO)[C@@H](c3ccc(-c4ccccc4F)cc3)[C@@H]2C1 | 4.47 µM
2 | CN1c2ccc(-c3ccc(F)cc3)cc2[C@H]2[C@H](CCN2S(=O)(=O)c2cccc(F)c2)[C@H]1CO | 4.41 µM

Same assay, conditions: measured here: test 2 replicate run

Row | SMILES | AC50
3 | CCOc1ccc(-c2cc(C(=O)N/N=C/c3ccc(O)cc3)c3ccccc3n2)cc1 | 16 µM
4 | COc1ccc(OC)c(C2CC(c3ccccc3)=NN2C(=S)Nc2ccccc2)c1 (stereo not given) | 8.44 µM
5 | O=C1c2cccc3c(O)ccc(c23)C(=O)N1c1ccc(Cl)cc1 | 16.8 µM
6 | Cc1ccc(/C=N/NC(=O)c2ccc3ccccc3c2)s1 | 2.05 µM
7 | Cc1cc(C(=O)N2CC=C(c3ccccc3)CC2)c2ccccc2n1 | 0.66 µM
8 | COc1ccc(OC)c(Nc2nc(-c3sc(NC(=O)C(C)(C)C)nc3C)cs2)c1 | 2.78 µM
9 | CC1=Nc2cc(C(=O)NCC3CCCO3)ccc2Sc2ccc(Br)cc21 (stereo not given) | 9.45 µM
10 | Nc1sc(-c2ccccc2)cc1-c1n[nH]c(=S)n1C1CCCCC1 | 2.45 µM
11 | COC(=O)C1=CN(c2ccc(OC)cc2OC)C(N)=C(C#N)C1c1ccccc1F (stereo not given) | 1.23 µM
12 | COc1ccc(OC)c(N/C(N)=N/c2nc(C)cc(C)n2)c1 | 39.4 µM
13 | CC(C)(C)c1ccc(OCC(=O)Nc2ccc3c4c(cccc24)C(=O)NC3=O)cc1 | 18.4 µM
14 | COc1ccc(Cl)cc1NC(=O)CN(C)CC(=O)Nc1cc(OC)c(OC)c(OC)c1 | 8.47 µM
15 | O=C1c2cccc(NCCCNCCO)c2C(=O)c2cccc(NCCCNCCO)c21 | 16 µM
16 | CCOC(=O)c1ccc(N2CCOCC2)c(NC(=O)c2c(-c3ccccc3)noc2C)c1 | 4.89 µM
17 | COc1cc(C(=O)c2cocc2C(=O)c2ccc3c(c2)OCO3)cc(OC)c1OC | 0.451 µM
18 | COc1ccc(OC)c(C(=O)Cn2nnc(-c3ccc(N4CCOCC4)cc3)n2)c1 | 31.1 µM
19 | COc1ccc2c(c1)sc(N)[n+]2Cc1cc(C)cc2cccnc12 | 1.04 µM
20 | CCCOc1cc(N(CC)CC)ccc1/C=C(/C#N)c1nc2ccc(C)cc2[nH]1 | 6.15 µM
21 | Cc1c(OCC(=O)NCCN2CCOCC2)ccc2c3c(c(=O)oc12)CCC3 | > 50 µM
22 | CCOc1ccc(Cl)cc1C1=CC(=O)C[C@H](c2ccc(OC)cc2)C1 | 1.92 µM
23 | Cc1ncc(CO)c(/C=N/Nc2ccc(C(F)(F)F)cn2)c1O | 1.18 µM
24 | Cc1cc(C)c(/C=C2\C(=O)Nc3ccccc32)[nH]1 | 10.8 µM
25 | Cc1ccc(-c2csc(Nc3ccccn3)n2)cc1 | 26.4 µM
26 | COc1ccc(NC(=O)c2nc(C)c(C3(C)CC(c4cccnc4)=NO3)s2)cc1 (stereo not given) | 2.75 µM
27 | O=C(CCc1ccccc1)NCC(c1ccco1)N1CCc2ccccc21 (stereo not given) | 4.6 µM
28 | COc1ccc(-c2nc(-c3cccc(C)c3)no2)cc1OC | 9.13 µM

Row | SMILES | AC50
29 | O=C(NCCC1CCCCN1S(=O)(=O)c1cccs1)C(=O)Nc1ccc(F)cc1F (stereo not given) | 8.39 µM
30 | CC(C)(C)c1cc(C(=O)NN)n(Cc2ccc(Cl)cc2Cl)n1 | > 50 µM
31 | CC(Sc1nc2ccccc2c(=O)n1C)C(=O)Nc1ccc2c(c1)OCCO2 (stereo not given) | > 50 µM
32 | COc1cc(/C=C(\C#N)C(=O)c2c[nH]c3ccccc23)cc(OC)c1O | 8.32 µM
33 | COc1cc2c(C#CCCO)c(-c3ccsc3)oc(=O)c2cc1OC | 5.52 µM
34 | NS(=O)(=O)c1ccc(CCNc2nn3c(-c4cccc(OC(F)(F)F)c4)cnc3s2)cc1 | 1.99 µM
35 | COc1ccccc1/C=N/NC(=O)c1cc2c(OC)c(OC)ccc2[nH]1 | 0.802 µM
36 | O=C1C=C(NCCc2cc(Br)c(O)c(Br)c2)C(=O)c2ncccc21 | 3.33 µM
37 | CC(=O)c1cccc(Nc2c3c(nc4ccccc24)CCC3)c1 | 2.69 µM
38 | COc1ccc(C(=O)c2ccc(N(C)C)cc2)c(OC)c1 | 3.82 µM
39 | Cc1ccc(OCC(=O)Nc2ccc3c(c2)ncn3C)cc1 | > 50 µM
40 | COc1ccc(C2=Nn3c(nnc3-c3ccccc3OC)SC2)cc1OC1CCOC1 (stereo not given) | 0.973 µM
41 | COc1cc(/C=C/C(=O)c2ccc3c(c2)OCO3)cc(Cl)c1O | 15.6 µM
42 | N#C/C(=C/c1ccc(N2CCCCC2)o1)C(=O)Nc1ccc2ccccc2c1 | 6.64 µM
43 | COc1cc(OC)c2c(-c3cccc(-c4sccc4C(C)=O)c3)cc(=O)oc2c1 | 12.2 µM
44 | Cc1ccc(CNC(=O)c2ccc3c(=O)c(O)c(-c4ccc(C)cc4)[nH]c3c2)cc1 | 4.24 µM
45 | COc1ccc(OC)c(-c2cc(-c3cccnc3)nc(N)c2C#N)c1 | 2.43 µM
46 | Cc1cc2oc(C(=O)NCCc3ccc(S(N)(=O)=O)cc3)c(C)c2cc1C | 0.901 µM
47 | CC[n+]1c(-c2ccccc2)c2cc(N)ccc2c2ccc(N)cc21 | 7.74 µM
48 | Cc1nc(NCc2cccnc2)c2c3c(sc2n1)CCCC3 | 7.38 µM
49 | N#CCC(=O)N/N=C/c1cn(Cc2cccc3ccccc23)c2ccccc12 | 2.86 µM
50 | COc1cccc2c1C(=O)C=C(C)C2=O | 15.2 µM
51 | N#Cc1ccc(-c2cccs2)nc1SCc1cccnc1 | 0.519 µM
52 | CCC1(C)OC(c2ccccc2)=C/C(=C/C=C2C(=O)NC(=O)NC2=O)O1 (stereo not given) | 38.7 µM
53 | CCOC(=O)[C@]12CCCC=C1N(Cc1cccc3ccccc13)C(=O)[C@H](CC(=O)NCc1cccc(C(F)(F)F)c1)C2 | 30 µM
54 | COc1ccccc1/C=C/C=N/NC(=O)CCn1cnc2ccccc21 | 8.01 µM

Row | SMILES | AC50
55 | O=C(Nc1ccccc1)c1nc[nH]c1C(=O)Nc1ccccc1F | 28.3 µM
56 | O=[N+]([O-])c1ccc(Sc2cccc[n+]2[O-])c2nonc12 | 12.7 µM
57 | CN1/C(=C\C=C2/SC(=S)NC2=O)C(C)(C)c2ccccc21 | 18.5 µM
58 | O=c1cc(-c2ccccc2)[nH]c2ccc(F)cc12 | > 50 µM
59 | Cc1ccc(COc2ccccc2-c2cc(C(=O)N/N=C/c3cccnc3)[nH]n2)cc1 | > 50 µM
60 | CC1OC(OC2CC(O)C3(CO)C4C(O)CC5(C)C(C6=CC(=O)OC6)CCC5(O)C4CCC3(O)C2)C(O)C(O)C1O (stereo not given) | 3.38 µM
61 | N#CC1=C(N)OC2=C(CCc3ccccc32)C1c1ccccc1Cl (stereo not given) | 2.61 µM
62 | CN1C(=O)c2cccc3c(N)ccc(c23)C1=O | 18.3 µM
63 | CC(=O)NC(c1ccc(Cl)cc1Cl)c1ccc2cccnc2c1O (stereo not given) | 2.63 µM
64 | COc1ccc(OC)c2[nH]c(C(=O)N/N=C/c3ccccc3O)cc12 | 2.6 µM
65 | COCCNc1nc(Nc2ccc(C)cc2C)c2sccc2n1 | 2.34 µM
66 | Nc1ccn([C@@H]2O[C@H](C(=O)NCC(F)(F)F)[C@@H](O)[C@H]2O)c(=O)n1 | > 50 µM
67 | CCN(c1cccc(C)c1)S(=O)(=O)c1ccc(-c2cc(C)no2)s1 | 5.94 µM
68 | O=S(=O)(Cc1ccc(Cl)cc1Cl)c1ccc(Cl)cc1 | 2.72 µM
69 | COc1ccc(NCC(=O)n2c(C)c(C)c3ccccc32)cc1 | 5.59 µM
70 | COc1ccc([C@H]2CC(=O)C=C(c3ccc(OC)cc3OC)C2)cc1 | 0.681 µM
71 | Oc1cccc(/C=N/Nc2ccc(Cl)nn2)c1O | 16 µM
72 | CCOC(=O)c1cc2c(=Cc3ccc(N(C)C)cc3)c3ccccc3n2[n+]1C | 5.09 µM
73 | COc1cc(/C=C2\SC(=S)N(NC(=O)c3ccncc3)C2=O)ccc1O | 13.2 µM
74 | CC1=Nc2cc(C(=O)NCC3CCCO3)ccc2Sc2ccc(C)cc21 (stereo not given) | 2.57 µM
75 | O=C(Nc1ccc(Cl)cn1)c1cccc2ccccc12 | 8.46 µM
76 | Cn1cccc1/C=C1\SC(=Nc2ccc(O)cc2)NC1=O | 0.315 µM
77 | COc1ccc(NC(=O)C(=O)NCC2CCCN2S(=O)(=O)c2cccs2)cc1 (stereo not given) | 3.63 µM
78 | Cc1ccc2c(c1)CCCN2C(=O)CCc1nc2ccccc2c(=O)[nH]1 | 5.42 µM
79 | CC(OC(=O)CCCC(=O)Nc1ccc(F)cc1)C(=O)c1ccccc1 (stereo not given) | > 50 µM
80 | CCC(=O)NC(c1ccc(C)cc1)c1ccc2cccnc2c1O (stereo not given) | > 50 µM
